Test [1] deals with Cryptococcus neoformans TIMM 0354. Description: Antifungal activity: growth inhibition of Cryptococcus neoformans TIMM 0354 (serial two-fold dilution). Format: cell-based. Particulars: YNBG liquid medium, 2 days at 30° C.; for MIC: Cryptococcus neoformans, TIMM0354, 48 h, read-out: Antifungal activity MIC (minimum growth inhibitory concentration); for minimum growth sub-inhibitory concentration (minimum concentration causing partial growth inhibition; value in parentheses): printed in parentheses. The protocol:
The test microorganism used was Cryptococcus neoformans TIMM 0354. YNBG liquid medium (Difco yeast nitrogen base 0.67%, glucose 1%) was used and the minimum growth inhibitory concentration […] was determined after culturing for 2 days at 30° C. in the presence of the serial two-fold dilution of the compound. The minimum growth sub-inhibitory concentration (μg/ml) was determined as the minimum concentration causing partial growth inhibition of the microorganism and also shown in Table 2 in parentheses.

The test system of test [2] is mixed lymphocytes reaction (MLR), T cells from spleen cells of C57BL/6 mice and BALB/c mice. Description: Immunosuppressive activity: inhibition of mixed lymphocytes reaction (MLR). Format: cell-based, mice (C57BL/6. Particulars: Lymphocyte; mouse MLR, 50% inhibition. An excerpt: We measured inhibitory activity of mixed lymphocytes reaction (MLR) and determined the 50% inhibitory activity. Lymphocytes used are T cells from spleen cells of C57BL/6 mice and BALB/c mice.

As usually defined, the IC50 is the midpoint of a concentration-inhibition curve. A higher IC50 goes with weaker potency.

Molecules are shown by their SMILES. In brackets after ≈: the same amount, converted by molar mass.

Take `CCCCCCCCCCCCCC=CC(O)C(N)COC(=O)C(NC(=O)C(O)CO)C(C)C` (centres unmarked) [Compound (2)]: in test [1], the MIC amounted to 25 µg/mL (≈ 51.4 µM) and the “minimum growth sub-inhibitory concentration (minimum concentration causing partial growth inhibition; value in parentheses)” value was determined as 12.5 µg/mL. The IC50 in test [2] is 1.86 µg/mL (≈ 3.82 µM).

Take `CCCCCCCCCCCCCCCC(O)C(N)C(=O)NC(C)C(=O)NC(C(=O)NC(CO)CO)C(C)C` (centres unmarked) [Compound (8)]: the “minimum growth sub-inhibitory concentration (minimum concentration causing partial growth inhibition; value in parentheses)” value in test [1] came to 50 µg/mL. Moreover, the IC50 in test [2] stood at 0.44 µg/mL (≈ 0.787 µM).

Turning to `CCCCCCCCCCCCCC=CC(O)C(N)COC(=O)C(N)C(C)C` (centres unmarked) [Compound (6)], in test [1], the MIC turned out to be 50 µg/mL (≈ 125 µM) and the “minimum growth sub-inhibitory concentration (minimum concentration causing partial growth inhibition; value in parentheses)” value is 25 µg/mL. Moreover, in test [2], it took 1.55 µg/mL (≈ 3.89 µM) to reach half-maximal inhibition (IC50).

For `CCCCCCCCCCCCCC=CC(O)C(N)COC(=O)C(O)CO` (centres unmarked) [Compound (5)], in test [1], the MIC was 50 µg/mL (≈ 129 µM) and the “minimum growth sub-inhibitory concentration (minimum concentration causing partial growth inhibition; value in parentheses)” value is 25 µg/mL. In test [2], this compound returned an IC50 of 5 µg/mL (≈ 12.9 µM).

Turning to `CCCCCCCCCCCCCCCC(O)C(N)COC(=O)[C@@H](NC(=O)C(O)CO)C(C)C` (some centres unmarked) [Compound (1)], in test [1], the MIC was 50 µg/mL (≈ 102 µM) and the “minimum growth sub-inhibitory concentration (minimum concentration causing partial growth inhibition; value in parentheses)” value is 25 µg/mL. This compound yielded a 50% inhibitory concentration (IC50) in test [2] of 3.25 µg/mL (≈ 6.65 µM).

Source of the values: US6239297A, “Sphingosine derivatives and medicinal composition” (Takara Shuzo Co., Ltd., priority 1997, dated 2001).
